Measurements taken from ChEMBL document CHEMBL3580645, “Antiviral Activity of Flexibilane and Tigliane Diterpenoids from Stillingia lineata” (J Nat Prod, 2015).

How the values were obtained:
PC-3 = assay: Cytotoxicity against human PC3 cells at 1 uM after 72 hrs by MTS assay; assay type: functional; settings: PC-3, 72 h
in vitro [1] = settings: monkey, Vero cells
MCF7 = assay: Cytotoxicity against human MCF7 cells at 1 uM after 72 hrs by MTS assay; assay type: functional; settings: MCF7, 72 h
Chikungunya virus = assay: microbe, parasite or virus in culture; settings: strain 899, Vero
Sindbis virus = assay: microbe, parasite or virus in culture; settings: strain HRsp, Vero
in vitro [2] = settings: chlorocebus sabaeus, Vero cells
in vitro [3] = settings: monkey, Vero cells; remark: listed apart in the source
[4] = tested on: Human immunodeficiency virus 1; assay: microbe, parasite or virus in culture; settings: Human immunodeficiency virus 1, 3B, MT4, 120 h
in vitro [5] = settings: human, MT4 cells
Semliki Forest virus = assay: microbe, parasite or virus in culture; settings: strain Vietnam, Vero
HCT-116 = assay: Cytotoxicity against human HCT116 cells at 1 uM after 72 hrs by MTS assay; assay type: functional; settings: HCT-116, 72 h
in vitro [6] = settings: human, MT4 cells; remark: listed apart in the source
[7] = tested on: Human immunodeficiency virus 2; assay: microbe, parasite or virus in culture; settings: Human immunodeficiency virus 2, ISOLATE ROD, MT4, 120 h
in vitro [8] = settings: human, MT4 cells; remark: listed apart in the source

| Structure (SMILES) | inhibition at 1 µM (PC-3) [%] | selectivity ratio (in vitro [1]) | inhibition at 1 µM (MCF7) [%] | EC50 (Chikungunya virus) [µM] | EC50 (Sindbis virus) [µM] | CC50 at 72 h (in vitro [2]) [µM] | selectivity ratio (in vitro [3]) | EC50 [4] [µM] | selectivity ratio (in vitro [5]) | EC50 (Semliki Forest virus) [µM] | inhibition at 1 µM (HCT-116) [%] | CC50 at 72 h (in vitro [6]) [µM] | EC50 [7] [µM] | selectivity ratio (in vitro [8]) |
| --- | --- | --- | --- | --- | --- | --- | --- | --- | --- | --- | --- | --- | --- | --- |
| CCCCCCCCC(=O)/C=C/C=C/C=C/C(=O)O[C@@]12C[C@@H](C)[C@@]3(O)[C@@H](C=C(CO)C[C@]4(O)C(=O)C(C)=C[C@@H]34)[C@@H]1C2(C)C | < 40 | 5.9 | < 40 | 2.2 | 11 | 13 | 1.2 | 0.043 | 299 | > 168 | < 40 | 13 | 0.018 | 1430 |
| CC/C=C/C=C/C=C\C(=O)O[C@@H]1[C@@H](C)[C@]2(O)[C@@H]3C=C(C)C(=O)[C@@H]3CC(CO)=C[C@H]2[C@@H]2C(C)(C)[C@]12OC(=O)CCC | < 40 | 5.1 | < 40 | 1.4 | 5 | 7.1 | 1.4 | 0.233 | 36 | > 177 | < 40 | 8.4 | 0.174 | 33 |
| CCN(CC)CCCC(C)Nc1ccnc2cc(Cl)ccc12 (stereo not given) [CHLOROQUINE] |  |  |  |  |  | 89 |  |  |  |  |  |  |  |  |
| CCC(C)C(=O)O[C@@]12[C@H](OC(C)=O)[C@@H](C)[C@]3(O)[C@@H]4C=C(C)C(=O)[C@@H]4CC(CO)=C[C@H]3[C@@H]1C2(C)C (stereo not given in full) | < 40 | 1.4 | < 40 | 77 |  | 105 |  | > 85 |  |  | < 40 | 85 | 13 | 4 |
| Cc1cn([C@H]2C[C@H](N=[N+]=[N-])[C@@H](CO)O2)c(=O)[nH]c1=O [ZIDOVUDINE] |  |  |  |  |  |  |  |  |  |  |  | > 25 |  |  |
| Cc1ccnc2c1NC(=O)c1cccnc1N2C1CC1 [NEVIRAPINE] |  |  |  |  |  |  |  | 0.01 | 148 |  |  | > 15 | > 15 |  |
| CCC(C)C(=O)O[C@@]12[C@H](OC(C)=O)[C@@H](C)[C@@]3(O)[C@@H](C=C(CO)C[C@]4(O)C(=O)C(C)=C[C@@H]34)[C@@H]1C2(C)C (stereo not given in full) | < 40 | 41 | < 40 | 3.3 | > 255 | 134 |  | 0.271 | 376 | > 255 | < 40 | 102 | 0.107 | 949 |
| Nc1ccn([C@@H]2CS[C@H](CO)O2)c(=O)n1 [LAMIVUDINE] |  |  |  |  |  |  |  | 3.9 | > 22 |  |  | > 87 | 15.5 | > 5.6 |
| CCC(C)C(=O)O[C@@]12C[C@@H](C)[C@@]3(O)[C@@H](C=C(CO)C[C@]4(O)C(=O)C(C)=C[C@@H]34)[C@@H]1C2(C)C (stereo not given in full) | < 40 | > 240 | < 40 | 1.2 | > 289 | > 289 |  | 0.129 | 899 | > 289 | < 40 | 116 | 0.056 | 2060 |
| O=c1[nH]cnc2c1ncn2[C@H]1CC[C@@H](CO)O1 [DIDANOSINE] |  |  |  |  |  |  |  | 10.8 | > 4.6 |  |  | > 50 | 9.6 | > 5.2 |
